Measurements published in patent US8354498B2, “CD4 mimic peptides and their uses” (Commissariat a l'Energie Atomique, priority 2006, dated 2013).
Like-named read-outs stand apart in the source and are kept apart here.

Key:
HIV-1 6393(R5) = assay: Acute infection assay in PM1 cells; type: cell-based; conditions: day 5, read-out: Antiviral activity IC50
Method: (§1) For the acute infection assay in PM1 cell line (Lusso et al., J. virol., 1995, 69, 3712-3720), an immortalized CD4^+CCR5^+CXCR4^+ T-cell clone susceptible of a wide variety of HIV-1 strains, the cells were seeded at 2.5×10^4 cells/well into flat-bottom 96-well plates in 200 μL of complete RPMI medium. Cells were then exposed to the viral stocks (˜50 TCID50/well) pre-treated or not with serial dilutions of inhibitors for 30 min. After overnight incubation at 37° C., the cells were washed twice and recultured in complete RPMI medium supplemented with the appropriate inhibitors. After 3, 5 or 7 days, the culture supernatant was removed […] p24 antigen testing and replaced with fresh medium containing the appropriate inhibitors. The extracellular p24 concentrations were measured by capture ELISA, using a sandwich of specific antibodies (AALTO BIO REAGENTS).
(§2) The experimental procedures are as described in example 1.

HIV-1 BaL(R5) = assay: Acute infection assay in PM1 cells; type: cell-based; conditions: day 5, read-out: Antiviral activity IC50
Method: as §1, §2

HIV-1 714(R5) = assay: Acute infection assay in PM1 cells; type: cell-based; conditions: day 5, read-out: Antiviral activity IC50
Method: as §1, §2

HIV-1 NL4.3 (X4) = type: cell-based
Method: The antiviral activity of the molecules in MT-4 cells was determined using a tetrazolium-based colorimetric assay (Hase et al., Biochem. Pharmacol., 2005, 70, 752-761). Briefly, five-fold dilutions of the test compounds in 100 μL of medium were added to duplicate wells of 96-well flat bottom plates (IWAKI). Then 6×10^4 MT-4 cells were added in 50 μL of medium, and finally 50 μL of diluted HIV-1 stocks was added to each well. Cytopathic effect induced by the virus was monitored by daily microscopic evaluation of the virus-infected cell cultures. At day 4-5 after infection, the cell viability was assessed via the in situ reduction of the tetrazolium compound MTS, using the CellTiter 96® AQueous one solution cell proliferation assay (PROMEGA). The absorbance was then measured at 490 nm with a 96-well plate reader and compared with four cell control replicates (cells without virus and drugs) and four virus control wells (virus-infected cells without drugs). The IC50 was calculated for each compound from the dose-response curve.
as §2

gp120SF162 = gp120SF162 (Human immunodeficiency virus type 1 group M subtype B, UniProt P19550); conditions: injected at 125 nM; curves normalized to CD4M48
Method: 100 μL of monomer, dimers and tetramers were passed over the surface at 20 μL/min after which dissociation of bound inhibitors was monitored for 15 min.
All experiments were conducted at 25° C. with 20 μL/min flow rate in HBS (50 mM HEPES-buffered saline, 3 mM EDTA, 0.05% Biacore surfactant P20, pH 7.4) with a BIACORE 3000 instrument (BIACORE AB).
For binding of multimers to gp120, gp120SF162 was immobilized on a CM5 sensor chip at 9000 RU by the amine coupling kit provided by the manufacturer.

HIV-1 NL4.3(X4) = type: cell-based
Method: The acute infection assays in primary cells were performed as described by Schols and coworkers (Balzarini et al., J. Biol. Chem., 2005, 280, 41005-41014). Briefly, PBMC from healthy donors were isolated by density gradient centrifugation and stimulated by phytohemagglutinin (PHA; SIGMA) in RPMI 1640 medium supplemented with 10% foetal calf serum (FCS; BIOCHROM). PBMC were infected by exposing cells (0.5×10^6/well; 48-well plate) to the viral stocks added at a final dose of 250 pg of p24/mL in the presence or the absence of the inhibitors. Cell supernatant was collected at day 12, and HIV-1 core Ag in the culture supernatant was analysed by a p24 Ag enzyme-linked immunosorbent assay kit (PERKIN ELMER).
as §2

[1] = tested on: gp120 isolates SF2, SF162, Bal, IIIB, YU2; assay: Direct binding by fluorescence anisotropy, comparison over all isolates; parameters: species or system HIV-1; conditions: depending on gp120 isolates
Method: Direct binding assays of fluorescent peptides were performed in triplicates by adding 10 μL of 0.5 nM Alexa-labeled mini-proteins and 10 μL of serial dilutions (two-thirds dilutions in 16 wells, starting at 200 nM) of gp120 SF2, SF162, BaL, IIIB and YU2. Collected data were fitted to the following equation using a non-linear regression program (Prism, GraphPad software Inc.):
The biphenylalanine in position 23 led to a 3 fold gain, consistent with the previously observed difference between CD4M33 and its [Phe^23]M33 mutant (Huang et al., Structure, 2005, 13, 755-768).

gp120 = tested on: gp120
Method: Fluorescence anisotropy was determined after 40 min equilibration time at room temperature, using 485 nm excitation and 530 nm emission filters and an additional 505 nm dichroic filter. All experiments were performed in duplicate.
Fluorescence anisotropy measurements were based on the assessment of the rotational motions of species. Whereas the CD4-mimic tumbles very fast in solution randomizing excited molecules, once it binds to gp120 envelopes, the excited mini-protein stays aligned during the process of emission and as a result, emitted light is polarized.

[2] = target: T1, gp120SF162 binding to CCR5+-CHO cells (Human immunodeficiency virus type 1 group M subtype B, UniProt P19550); assay: FACS analysis of gp120 binding to CCR5+-CHO cells in presence of CD4 mimics; type: cell-based, HIV-1; conditions: gp120SF162 pre-incubated with mini-protein
T1 construct: R5-tropic SF162 and Dual-tropic SF2 recombinant gp120s were produced in mammalian cells (CHO); made in house; host or cells: gp120: CHO; CCR5: transfected CHO-K1 cells
Excerpt: FIG. 7 illustrates the FACS analysis of the binding of recombinant envelope gp120 to CCR5^+-CHO cells in absence or in presence of various CD4-mimics, in comparison with soluble CD4.
FIG. 13 illustrates the FACS analysis of the binding of recombinant envelope gp120 to CCR5^+-CHO cells in absence or in presence of various CD4-mimics in comparison with soluble CD4.
FIG. 19 illustrates the FACS analysis of the binding of gp120SF162 to CCR5^+ CHO cells in absence or in presence of CD4M48 monomer or hetero-bivalent CD4M48−heparin. The ability of gp120 in complex with CD4M48 alone, CD4M48 covalently bound to heparin (noted M48−heparin), CD4M48 in presence of free LMW heparin (1:1) (noted M48+heparin) to bind to cellular co-receptor CCR5 was investigated.
Adherent CHO-K1 cells expressing CCR5 (Samson et al., Biochemistry, 1996, 35, 3362-3367; Blanpain et al., Blood, 2000, 96, 1638-1645) were used to analyze gp120SF162 conformational change in complex with different mini-proteins, by FACS (BECKTON DICKINSON). Briefly, 0.03 μg of gp120SF162 were pre-incubated overnight at 4° C. in absence or in presence of 10 nM CD4 or 10 nM mini-proteins and further added to 2×10^5 cells in HAM F12 supplemented with 10% SVF, 1% penicillin/streptomycin. […] After final wash, cells were analyzed for envelope binding by FACS.

[3] = tested on: gp120 (SF162, YU2, SF2, LAI, HXB2) binding to CD4i antibody 48d; assay: SPR analysis of binding of gp120 complexes to immobilized CD4i Ab 48d; parameters: species or system HIV-1; conditions: 50 nM gp120 premixed with 3 eq.
Method: 120 μL of 50 nM gp120 preincubated with 3 eq. […] (A) gp120SF162, (B) gp120LAI. (C) gp120YU2.
The different gp120 (SF162, YU2, LAI, HXB2, SF2) were premixed at a final concentration of 50 nM with 3 eq. CD4M48, 3 eq. CD4M48 in presence of 3 eq. LMW heparin or 3 eq. covalent CD4M48−heparin for 60 min before injection at 20 μL/min. All sensorgrams were corrected by substracting the signal from reference flow cell.

[4] = MT-4 cells, NL4.3 (X4), day 5, read-out: Antiviral activity IC50

| Substance | IC50 (HIV-1 6393(R5)) [µM] | IC50 (HIV-1 BaL(R5)) [µM] | IC50 (HIV-1 714(R5)) [µM] | IC50 (HIV-1 NL4.3 (X4); [4]) [µM] | Improvement of affinity (Kd) compared to CD4M33 [1] | further results |
| --- | --- | --- | --- | --- | --- | --- |
| CD4M48T100: CD4M48 tetramer on polylysine construct with 100 Å PEGylated linkers (XNLHFCQLRCKSLGLLGRCAXTFCACV; not fully specified; D-residues) | 0.055 | 0.045 | 0.36 | 0.022 |  | Dissociation from immobilized gp120 (off-rate) compared to monomer CD4M48 (gp120SF162): slowed-down dissociation phase |
| Enfuvirtide |  |  |  |  |  | IC50 (HIV-1 NL4.3(X4)): 0.013 µM; IC50 (HIV-1 NL4.3 (X4); NL4.3(X4)): 0.011 µM |
| CD4M47-F1: CD4M47 labeled with Alexa-488 probe at Lys11 |  |  |  |  | 5.2- to 12.3 fold |  |
| CD4M48T50: CD4M48 tetramer on polylysine construct with 50 Å PEGylated linkers | 0.35 | 0.31 | 0.68 | 0.031 |  | IC50 (HIV-1 NL4.3(X4); PBMC, day 12, read-out: Antiviral activity IC50): < 0.026 µM |
| CD4M48-F1: CD4M48 labeled with Alexa-488 probe at Lys11 (XNLHFCQLRCKSLGLLGRCAXTFCACV; not fully specified; D-residues) |  |  |  |  | 1.1 to 6.1 fold |  |
| CD4M48-hep: hetero-bivalent inhibitor: CD4M48-hydrazino (Lys-11) covalently ligated to heparin mono-aldehyde (XNLHFCQLRCKSLGLLGRCAXTFCACV; not fully specified; D-residues) |  |  |  |  |  | Inhibition of CD4M33-F1 binding to gp120 (competitive polarization) (gp120): nanomolar range; Binding of gp120 to CCR5+-CHO cells induced by the mimic (conformational change of gp120) [2]: prevents the binding of the complex to CCR5+ cells; Recognition of the gp120 complex by CD4i Ab 48d [3]: inhibit completely the recognition of the complex by CD4i-Ab 48d |
